Laboratory results reported in the NIST ThermoML archive (doi:10.1021/je300775u).

Assay: xn = mol fraction of the nth substance listed
Conditions: 101 kPa, Liquid; for speed of sound: Pulse-echo method; for mass density: Vibrating tube method

BrCBr [dibromomethane] + CCCCCCC
Conditions | mass density, 293.15 K [kg/m3] | mass density, 298.15 K [kg/m3] | mass density, 303.15 K [kg/m3] | mass density, 308.15 K [kg/m3] | mass density, 313.15 K [kg/m3] | speed of sound, 293.15 K [m/s] | speed of sound, 298.15 K [m/s] | speed of sound, 303.15 K [m/s] | speed of sound, 308.15 K [m/s] | speed of sound, 313.15 K [m/s]
x1 = 0.0504 | 727.59 | 723.09 | 718.56 | 714 | 709.41 | 1128.1 | 1107.3 | 1086.4 | 1065.7 | 1045.1
x1 = 0.1039 | 776.8 | 772.01 | 767.19 | 762.36 | 757.48 | 1104.9 | 1084.7 | 1064.4 | 1044.3 | 1024.3
x1 = 0.1552 | 826.84 | 821.77 | 816.67 | 811.54 | 806.36 | 1084 | 1064.4 | 1044.8 | 1025.2 | 1005.6
x1 = 0.2037 | 877.02 | 871.66 | 866.26 | 860.84 | 855.37 | 1065.7 | 1046.5 | 1027.3 | 1008.2 | 989
x1 = 0.2532 | 931.38 | 925.72 | 920.03 | 914.3 | 908.53 | 1048.3 | 1029.7 | 1010.9 | 992.3 | 973.7
x1 = 0.3019 | 988.09 | 982.12 | 976.09 | 970.04 | 963.95 | 1032.4 | 1014.2 | 995.8 | 977.6 | 959.6
x1 = 0.354 | 1052.94 | 1046.61 | 1040.23 | 1033.82 | 1027.38 | 1016.7 | 999.1 | 981.2 | 963.5 | 946
x1 = 0.4022 | 1117.05 | 1110.37 | 1103.65 | 1096.88 | 1090.09 | 1003.5 | 986.1 | 968.8 | 951.5 | 934.5
x1 = 0.4552 | 1192.54 | 1185.46 | 1178.34 | 1171.15 | 1163.95 | 990.1 | 973.2 | 956.4 | 939.6 | 923
x1 = 0.4962 | 1254.87 | 1247.47 | 1240.03 | 1232.54 | 1225 | 980.6 | 964.2 | 947.8 | 931.2 | 914.8
x1 = 0.5532 | 1347.9 | 1339.98 | 1332.06 | 1324.08 | 1316.09 | 969.3 | 953.3 | 937.4 | 921.4 | 905.5
x1 = 0.6119 | 1452.49 | 1444.09 | 1435.65 | 1427.16 | 1418.62 | 959.2 | 943.8 | 928.3 | 912.9 | 897.5
x1 = 0.6543 | 1534.18 | 1525.37 | 1516.52 | 1507.63 | 1498.69 | 953.4 | 938.2 | 923.1 | 908 | 893
x1 = 0.7032 | 1635.75 | 1626.46 | 1617.14 | 1607.76 | 1598.32 | 948 | 933.3 | 918.6 | 903.9 | 889.2
x1 = 0.7514 | 1744.18 | 1734.39 | 1724.55 | 1714.66 | 1704.72 | 944.6 | 930.2 | 915.8 | 901.5 | 887.2
x1 = 0.8024 | 1869.64 | 1859.25 | 1848.85 | 1838.4 | 1827.87 | 942.9 | 928.9 | 915 | 901.1 | 887
x1 = 0.8518 | 2003.09 | 1992.14 | 1981.12 | 1970.07 | 1958.96 | 943.8 | 930.2 | 916.5 | 902.9 | 889.3
x1 = 0.9004 | 2147.05 | 2135.43 | 2123.78 | 2112.21 | 2100.38 | 947.2 | 933.8 | 920.3 | 907.1 | 893.8
x1 = 0.9502 | 2310.37 | 2298.08 | 2285.74 | 2273.36 | 2260.95 | 953.1 | 940.1 | 927.1 | 914.1 | 901.1
x1 = 1 | 2491.67 | 2478.61 | 2465.53 | 2452.42 | 2439.26 | 961.8 | 949.2 | 936.6 | 924 | 911.4
